The record followed here is patent publication US9376442B2, “Methylpyrrolopyrimidinecarboxamides” (Takeda GmbH, priority 2009, dated 2016).

Each structure is given as a SMILES string.

The target of this test is T1, PDE5A1 (Homo sapiens, UniProt O76074).
T1 construct: from tissue; host or cells: human platelets from fresh donor blood (10,000 x g supernatant of sonicated lysate)
Nature of the test: Inhibition of type 5 phosphodiesterase (PDE5) activity, modified SPA test with human platelet lysate. Type of test: biochemical. The settings on record: 0.5 μM cGMP, read-out: PDE5A1 inhibitory values [measured as −log IC50 (mol/l)] (converted). Put shortly: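 Scintillation proximity assay with [3H]cGMP tracer at 0.5 μM total cGMP, stopped after 15 min with beads containing IBMX. PDE3 and PDE2 activities suppressed with motapizone (1 μM) and a PDE2 inhibitor (10 nM). Human platelet supernatant served as the enzyme, with compound preincubated 5 min at 37° C; IC50 values from concentration-effect curves.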
As for `CC(=O)N[C@H]1CC[C@@H](NC(=O)c2c(C)[nH]c3c(-c4c(OCC5CC5)ccc5c4OCO5)ncnc23)CC1` [Example E9, N-(cis-4-acetamidocyclohexyl)-4-[5-(cyclopropylmethoxy)-1,3-benzodioxol-4-yl]-6-methyl-5H-pyrrolo[3,2-d]pyrimidine-7-carboxamide], the IC50 is below 1 nM.
In the case of `Cc1ccc(OCC2CC2)c(-c2nc(C)nc3c(C(=O)NC4CCN(C(=O)[C@H](C)O)CC4)c(C)[nH]c23)c1` [Example F107, 4-[2-(Cyclopropylmethoxy)-5-methylphenyl]-N-{1-[(2S)-2-hydroxypropanoyl]piperidin-4-yl}-2,6-dimethyl-5H-pyrrolo[3,2-d]pyrimidine-7-carboxamide] it was below 1 nM; in that of `CCC(=O)N1CC[C@@H](NC(=O)c2c(C)[nH]c3c(-c4cc(OC)ccc4OCC4CC4)ncnc23)[C@H](O)C1` (relative stereo) [Example E79, 4-[2-(Cyclopropylmethoxy)-5-methoxyphenyl]-N-[(3R*,4R*)-3-hydroxy-1-propanoylpiperidin-4-yl]-6-methyl-5H-pyrrolo[3,2-d]pyrimidine-7-carboxamide], below 1 nM; in that of `CC(=O)c1ccc(OCC2CC2)c(-c2ncnc3c(C(=O)NC4CCN(C(=O)CO)CC4)c(C)[nH]c23)c1` [Example F102, 4-[5-Acetyl-2-(cyclopropylmethoxy)phenyl]-N-[1-(hydroxyacetyl)piperidin-4-yl]-6-methyl-5H-pyrrolo[3,2-d]pyrimidine-7-carboxamide], below 1 nM.
The result for `COc1cc(-c2ncnc3c(C(=O)N[C@@H]4CCN(C(C)=O)C[C@H]4O)c(C)[nH]c23)c(OCC2CC2)cc1F` (relative stereo) [Example E113, N-[(3R*,4R*)-1-Acetyl-3-hydroxypiperidin-4-yl]-4-[2-(cyclopropylmethoxy)-4-fluoro-5-methoxyphenyl]-6-methyl-5H-pyrrolo[3,2-d]pyrimidine-7-carboxamide] reads below 1 nM.
Consider `COc1cc(-c2ncnc3c(C(=O)N[C@H]4CC[C@H](NC(=O)CO)CC4)c(C)[nH]c23)c(OCC2CC2)cc1F` [Example F67, 4-[2-(Cyclopropylmethoxy)-4-fluoro-5-methoxyphenyl]-N-[trans-4-(glycoloylamino)cyclohexyl]-6-methyl-5H-pyrrolo[3,2-d]pyrimidine-7-carboxamide], for which the IC50 is below 1 nM.
The result for `CCOc1ccc(F)cc1-c1ncnc2c(C(=O)NC3CCN(C(=O)CO)CC3)c(C)[nH]c12` [Example F32] reads 1 to 10 nM; that for `COc1cc(-c2ncnc3c(C(=O)N[C@H]4CN(C(C)=O)CC[C@@H]4O)c(C)[nH]c23)c(OCC2CC2)cc1F` (relative stereo) [Example E116, N-[(3S*,4S*)-1-Acetyl-4-hydroxypiperidin-3-yl]-4-[2-(cyclopropylmethoxy)-4-fluoro-5-methoxyphenyl]-6-methyl-5H-pyrrolo[3,2-d]pyrimidine-7-carboxamide], below 1 nM.
In the case of `COc1cc(-c2nc(C)nc3c(C(=O)NC4CCN(C(C)=O)CC4)c(C)[nH]c23)c(OCC2CC2)cc1F` [Example E173, N-(1-Acetylpiperidin-4-yl)-4-[2-(cyclopropylmethoxy)-4-fluoro-5-methoxyphenyl]-2,6-dimethyl-5H-pyrrolo[3,2-d]pyrimidine-7-carboxamide] it was below 1 nM.
In the case of `CC(=O)c1ccc(OCC2CC2)c(-c2ncnc3c(C(=O)N[C@H]4CC[C@H](NC(=O)[C@H](C)O)CC4)c(C)[nH]c23)c1` [Example F105, 4-[5-Acetyl-2-(cyclopropylmethoxy)phenyl]-N-(trans-4-{[(2S)-2-hydroxypropanoyl]amino}cyclohexyl)-6-methyl-5H-pyrrolo[3,2-d]pyrimidine-7-carboxamide] it was below 1 nM; in that of `COc1cc(OCC2CC2)c(-c2ncnc3c(C(=O)N[C@@H]4CN(C(=O)CO)C[C@H]4O)c(C)[nH]c23)cc1F` (relative stereo) [Example F117, 4-[2-(Cyclopropylmethoxy)-5-fluoro-4-methoxyphenyl]-N-[(3R*,4R*)-1-glycoloyl-4-hydroxypyrrolidin-3-yl]-6-methyl-5H-pyrrolo[3,2-d]pyrimidine-7-carboxamide], below 1 nM; in that of `COCC(=O)N1CCC(NC(=O)c2c(C)[nH]c3c(-c4ccc(F)cc4OCC4CC4)ncnc23)CC1` [Example E21, 4-[2-(Cyclopropylmethoxy)-4-fluorophenyl]-N-[1-(methoxyacetyl)piperidin-4-yl]-6-methyl-5H-pyrrolo[3,2-d]pyrimidine-7-carboxamide], below 1 nM.
As for `CCC(=O)N1CC[C@H](NC(=O)c2c(C)[nH]c3c(-c4ccc(F)cc4OCC4CC4)ncnc23)[C@@H](O)C1` (relative stereo) [Example E35, 4-[2-(Cyclopropylmethoxy)-4-fluorophenyl]-N-[(3S*,4S*)-3-hydroxy-1-propanoylpiperidin-4-yl]-6-methyl-5H-pyrrolo[3,2-d]pyrimidine-7-carboxamide], the IC50 is below 1 nM.
In the case of `Cc1[nH]c2c(-c3ccc(F)cc3OCC3CC3)ncnc2c1C(=O)NC1CCN(C(=O)CO)CC1` [Example F11, 4-[2-(Cyclopropylmethoxy)-4-fluorophenyl]-N-(1-glycoloylpiperidin-4-yl)-6-methyl-5H-pyrrolo[3,2-d]pyrimidine-7-carboxamide] it was below 1 nM.
In the case of `CC(=O)N1C[C@@H](O)[C@H](NC(=O)c2c(C)[nH]c3c(-c4ccc(F)cc4OCC4CC4)ncnc23)C1` (relative stereo) [Example E31, N-[(3R*,4R*)-1-acetyl-4-hydroxypyrrolidin-3-yl]-4-[2-(cyclopropylmethoxy)-4-fluorophenyl]-6-methyl-5H-pyrrolo[3,2-d]pyrimidine-7-carboxamide] it was 1 to 10 nM; in that of `COc1cc(-c2ncnc3c(C(=O)NC4CCN(C(=O)[C@H](C)O)CC4)c(C)[nH]c23)c(OCC2CC2)cc1F` [Example F66, 4-[2-(Cyclopropylmethoxy)-4-fluoro-5-methoxyphenyl]-N-{1-[(2S)-2-hydroxypropanoyl]piperidin-4-yl}-6-methyl-5H-pyrrolo[3,2-d]pyrimidine-7-carboxamide], below 1 nM; in that of `COc1cc(OCC2CC2)c(-c2ncnc3c(C(=O)N[C@@H]4CCN(C(C)=O)C4)c(C)[nH]c23)cc1F` [Example E186, N-[(3R)-1-Acetylpyrrolidin-3-yl]-4-[2-(cyclopropylmethoxy)-5-fluoro-4-methoxyphenyl]-6-methyl-5H-pyrrolo[3,2-d]pyrimidine-7-carboxamide], below 1 nM.
The result for `COc1ccc(-c2ncnc3c(C(=O)N[C@@H]4CCN(C(C)=O)C4)c(C)[nH]c23)c(OCC2CC2)c1` [Example E60, N-[(3R)-1-acetylpyrrolidin-3-yl]-4-[2-(cyclopropylmethoxy)-4-methoxyphenyl]-6-methyl-5H-pyrrolo[3,2-d]pyrimidine-7-carboxamide] reads below 1 nM; that for `CC(=O)N1CC[C@@H](NC(=O)c2c(C)[nH]c3c(-c4ccc(F)cc4OCC4CC4)ncnc23)C1` [Example E28, N-[(3R)-1-acetylpyrrolidin-3-yl]-4-[2-(cyclopropylmethoxy)-4-fluorophenyl]-6-methyl-5H-pyrrolo[3,2-d]pyrimidine-7-carboxamide], 1 to 10 nM.
On to `COc1ccc(OCC2CC2)c(-c2ncnc3c(C(=O)NC4CCN(C(=O)C(C)O)CC4O)c(C)[nH]c23)c1` (mixture of isomers) [Example F50, Diastereomeric mixture of 4-[2-(Cyclopropylmethoxy)-5-methoxyphenyl]-N{(3R,4R)-3-hydroxy-1-[(2S)-2-hydroxypropanoyl]piperidin-4-yl}-6-methyl-5H-pyrrolo[3,2-d]pyrimidine-7-carboxamide and 4-[2-(Cyclopropylmethoxy)-5-methoxyphenyl]-N-{(3S,4S)-3-hydroxy-1-[(2S)-2-hydroxypropanoyl]piperidin-4-yl}-6-methyl-5H-pyrrolo[3,2-d]pyrimidine-7-carboxamide], for which the IC50 is below 1 nM.
For the compound `CCC(=O)N1CCC(NC(=O)c2c(C)[nH]c3c(-c4cc(C)c(F)cc4OCC4CC4)ncnc23)CC1` [Example E120, 4-[2-(Cyclopropylmethoxy)-4-fluoro-5-methylphenyl]-6-methyl-N-(1-propanoylpiperidin-4-yl)-5H-pyrrolo[3,2-d]pyrimidine-7-carboxamide], the IC50 is below 1 nM.
Regarding `CCOc1ccc(C(F)(F)F)cc1-c1ncnc2c(C(=O)NC3CCN(C(=O)CC)CC3)c(C)[nH]c12` [Example E100, 4-[2-Ethoxy-5-(trifluoromethyl)phenyl]-6-methyl-N-(1-propanoylpiperidin-4-yl)-5H-pyrrolo[3,2-d]pyrimidine-7-carboxamide], the IC50 is below 1 nM.
The result for `CCOC(=O)N1CCC(NC(=O)c2c(C)[nH]c3c(-c4cc(F)c(OC)cc4OCC4CC4)ncnc23)CC1` [Example E134, Ethyl 4-[({4-[2-(cyclopropylmethoxy)-5-fluoro-4-methoxyphenyl]-6-methyl-5H-pyrrolo[3,2-d]pyrimidin-7-yl}carbonyl)amino]piperidine-1-carboxylate] reads below 1 nM.
Consider `CCC(=O)N[C@H]1CC[C@@H](NC(=O)c2c(C)[nH]c3c(-c4cc(C)c(F)cc4OCC4CC4)ncnc23)CC1` [Example E126, 4-[2-(Cyclopropylmethoxy)-4-fluoro-5-methylphenyl]-6-methyl-N-[cis-4-(propanoylamino)cyclohexyl]-5H-pyrrolo[3,2-d]pyrimidine-7-carboxamide], for which the IC50 is below 1 nM.
In the case of `CCC(=O)N1CC[C@@H](NC(=O)c2c(C)[nH]c3c(-c4ccc(F)cc4OCC4CC4)ncnc23)C1` [Example E29, 4-[2-(Cyclopropylmethoxy)-4-fluorophenyl]-6-methyl-N-[(3R)-1-propanoylpyrrolidin-3-yl]-5H-pyrrolo[3,2-d]pyrimidine-7-carboxamide] it was below 1 nM.
